From patent publication US8557530B2, “Use of a TAS2R7 nucleic acid sequence to identify modulators” (Givaudan SA, priority 2008, dated 2013)
Blank lines part the entries; values can stand above or below the molecule they belong to.

Experiments:
TAS2R7 = molecular target: T1, TAS2R7 (Homo sapiens, UniProt Q9NYW3); conditions: known from the art; cited from earlier work
T1 sequence (Q9NYW3 1-318): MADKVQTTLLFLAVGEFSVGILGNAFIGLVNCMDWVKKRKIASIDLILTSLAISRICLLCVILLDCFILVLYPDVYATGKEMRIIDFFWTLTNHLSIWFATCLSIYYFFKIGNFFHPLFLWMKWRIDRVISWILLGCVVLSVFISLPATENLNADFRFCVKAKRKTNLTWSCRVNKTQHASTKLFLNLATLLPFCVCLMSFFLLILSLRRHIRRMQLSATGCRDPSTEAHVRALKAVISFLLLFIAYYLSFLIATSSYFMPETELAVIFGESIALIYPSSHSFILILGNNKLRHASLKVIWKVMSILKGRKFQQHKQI

human TAS2R7 [1] = molecular target: T2, human TAS2R7 (Homo sapiens, UniProt Q9NYW3, L71P); assay: Fluo-4 calcium assay, HEK293T/Gα16-gustducin44 cells transiently expressing TAS2R7; format: cell-based; conditions: for TAS2R7 ΔF/F0: transiently transfected cells
T2 construct: RSS tag (first 45 amino acids of rat somatostatin receptor subtype 3, membrane export tag) (N); expressed in transfected cells
T2 sequence (Q9NYW3 with tags, fused parts or gaps L71P): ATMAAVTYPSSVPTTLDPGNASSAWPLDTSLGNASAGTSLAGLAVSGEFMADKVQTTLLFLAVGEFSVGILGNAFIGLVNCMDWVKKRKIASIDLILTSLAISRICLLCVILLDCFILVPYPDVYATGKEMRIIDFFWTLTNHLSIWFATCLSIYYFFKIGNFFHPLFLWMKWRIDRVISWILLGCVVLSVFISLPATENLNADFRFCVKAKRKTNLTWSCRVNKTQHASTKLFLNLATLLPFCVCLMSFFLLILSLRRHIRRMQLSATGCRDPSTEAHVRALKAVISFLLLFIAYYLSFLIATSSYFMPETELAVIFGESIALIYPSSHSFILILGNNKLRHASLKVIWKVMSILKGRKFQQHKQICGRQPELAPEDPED
Protocol: On day 0, the HEK293T/Gα16-gustducin 44 cells were plated in 96-well black wall, clear-bottom plates at a density of 15,000 cells per well and grown overnight in growth media (DMEM with 10% (v/v) heat-inactivated fetal bovine serum, 2 mM L-glutamine, 100 units/ml penicillin, 100 μg/ml streptomycin).
On day 1, the media was changed to an antibiotic-free and serum-free DMEM. The cells were transfected with TAS2R7 using Lipofectamine 2000 (Invitrogen).
Per well of a 96-well plate, 150 ng of vector DNA (TAS2R7 expression vectors from example 1) was diluted in 12.5 μl of DMEM. In a second tube, 0.3 μl of Lipofectamine 2000 was diluted in 12.5 μl of DMEM and incubated for 5 min at room temperature. After the 5 min, both solutions were mixed and incubated for 20 min at RT. The growth medium in the plate was exchanged for 50 μl of DMEM and 25 μl of the lipofectamine/DNA mixture was incubated on the cells for 3-4 hours at 37° in a humidified atmosphere. This mixture was then replaced with an antibiotic-free, serum-containing DMEM.
24 hours post transfection, the cells were used in the Fluo-4 Calcium Assay as described in Example 3.
(§1) At day 0, the HEK293T cell line expressing Gα16-gustducin44 and a TAS2R7 bitter taste receptor formed as described in examples 2a or 2b was seeded in antibiotic-free growth medium (standard DMEM with 10% (v/v) heat-inactivated fetal bovine serum, 2 mM L-glutamine […]) into black wall/clear bottom 96-well plates, coated with poly(ethylenimine) (0.005% v/v) at a concentration of 15,000 cells per well and incubated for 48 hours in humidified atmosphere (37° C., 5% CO2).
(§2) At the time of the assay, the growth medium was discarded and the cells were in humidified atmosphere (37° C., 5% CO2) for 1 hour with […] of loading buffer consisting of 1.5 μM Fluo-4 AM and 2.5 mM probenecid (Sigma-Aldrich, St. Louis, Mo., U.S.) in DMEM.
(§3) Afterwards, the 96-well plate was washed 5 times with 100 μl of assay buffer (130 mM NaCl, 5 mM KCl, 10 mM HEPES, 2 mM CaCl2, and 5 mM dextrose, pH 7.4) per well, using an automated plate washer (BioTek). The plate was further incubated for 30 minutes at room temperature in the dark to allow for complete de-esterification of the Fluo-4. Afterwards the plate was washed 5 times with 100 μl of assay buffer per well, and reconstituted with 100 μl of assay buffer per well.
(§4) For assay reading the plate was placed in a Fluorometric Imaging Plate Reader (FLIPR) (FLIPR-TETRA™, Molecular Devices, Sunnyvale, Calif., US), and receptor activation was initiated by addition of 20 microliter of a tenfold concentrated agonist stock solution (to give the desired agonist end concentration when added to the 180 microliter assay buffer volume), which was prepared in assay buffer.
(§5) Fluorescence was continuously monitored for 20 seconds to give a signal baseline (averaged to give F0) prior to agonist addition and for 120 seconds after agonist addition. The change in signal divided by F0 gives ΔF/F0 indicated in the table, with ΔF being the maximum signal occurring within the 120 seconds minus the minimum signal (occurring within the 120 seconds after agonist addition).
(§6) The obtained calcium signals were corrected for the response of cells expressing only the G-Protein α subunit (Gα16-gustducin44) and normalized to the fluorescence of cells prior to the stimulus using ΔF/F0 (Fmax−Fmin/F0).
The intracellular calcium response following the addition of L-menthol was determined in a HEK293T cell line stably expressing Gα16-gustducin44 and transiently expressing TAS2R7, formed as described in example 2a.

[2] = test system: more than 15 of the other human TAS2Rs; assay: Activation test on other human TAS2Rs; format: cell-based; conditions: more than 15 other human TAS2Rs
[3] = test system: HEK293T Gα16gustducin44 cells (that do not express TAS2R7); assay: Fluo-4 calcium assay, negative control HEK293T Gα16gustducin44 cells that do not express TAS2R7; format: cell-based, human; conditions: cells without TAS2R7
human TAS2R7 [4] = molecular target: T2, human TAS2R7; assay: Fluo-4 calcium assay, HEK293T/Gα16-gustducin44 cell line stably expressing TAS2R7; format: cell-based; conditions: stable cell line
Protocol: Cell lines that stably expresses TAS2R7 was generated by transfecting the pcDNA3.1Zeo-TAS2R7 construct into HEK293T/Gα16-gustducin 44 cells (formed as described in example 1). The host cell line HEK-293T is commercially available from the American Tissue Culture Collection (ATCC), ATCC®#CRL-11268.
TAS2R7 expressing cells were identified by their response to 2.6 mM L-menthol, which was determined via automated fluorimetric imaging on the FLIPR-TETRA™ (Molecular Devices, Sunnyvale, Calif., U.S.) as described in example 3. One clone was selected, resulting in the HEK293T/Gα16-gustducin 444/TAS2R7 cell line.
as §1, §2, §3, §4, §5
All data was collected from at least two independent experiments each carried out in triplicate.
A concentration-response analysis was performed and EC50 values were calculated by nonlinear regression using the function f(x)=(a−d)/(1+(x/C)^nh)+d; with a=minimum signal, d=maximum signal, nh=hill coefficient, C=EC50, and x=agonist concentration. EC50 is the molar concentration of an agonist which produces 50% of the maximum possible effective response for that agonist.
as §6
To confirm that the cell line formed in example 2b stably expresses the bitter taste receptor TAS2R7, a concentration-response curve for L-menthol was generated. […] The standard deviation (+/−STD) is also indicated.
Each sample (receptors as well as controls) contained a final concentration of 0.02% DMSO to allow for comparability of all examples below.

SMILES: C=C[C@H]1C[N@@]2CC[C@H]1C[C@H]2[C@H](O)c1ccnc2ccc(OC)cc12 [quinine]
response of TAS2R7 (TAS2R7): known to respond

SMILES: CC1CC[C@H](C(C)C)[C@@H](O)C1 (stereo partly drawn) [D-menthol]
activation of TAS2R7 (human TAS2R7 [1]; similar results as for L-menthol): shown to activate TAS2R7

TAS2R7 ΔF/F0 (human TAS2R7 [1]; L-menthol 0.01 mM): 0.09
TAS2R7 ΔF/F0 (human TAS2R7 [1]; L-menthol 0.02 mM): 0.08
TAS2R7 ΔF/F0 (human TAS2R7 [1]; L-menthol 0.04 mM): 0.08
TAS2R7 ΔF/F0 (human TAS2R7 [1]; L-menthol 0.08 mM): 0.10
TAS2R7 ΔF/F0 (human TAS2R7 [1]; L-menthol 0.16 mM): 0.15
TAS2R7 ΔF/F0 (human TAS2R7 [1]; L-menthol 0.33 mM): 0.34
TAS2R7 ΔF/F0 (human TAS2R7 [1]; L-menthol 0.65 mM): 0.41
TAS2R7 ΔF/F0 (human TAS2R7 [1]; L-menthol 1.30 mM): 0.53
TAS2R7 ΔF/F0 (human TAS2R7 [1]; L-menthol 2.60 mM): 0.65
TAS2R7 ΔF/F0 (human TAS2R7 [4]; L-menthol 0.01 mM): 0.09
TAS2R7 ΔF/F0 (human TAS2R7 [4]; L-menthol 0.02 mM): 0.09
TAS2R7 ΔF/F0 (human TAS2R7 [4]; L-menthol 0.04 mM): 0.13
TAS2R7 ΔF/F0 (human TAS2R7 [4]; L-menthol 0.08 mM): 0.12
TAS2R7 ΔF/F0 (human TAS2R7 [4]; L-menthol 0.16 mM): 0.23
TAS2R7 ΔF/F0 (human TAS2R7 [4]; L-menthol 0.33 mM): 0.61
TAS2R7 ΔF/F0 (human TAS2R7 [4]; L-menthol 0.65 mM): 1.03
TAS2R7 ΔF/F0 (human TAS2R7 [4]; L-menthol 1.30 mM): 1.16
TAS2R7 ΔF/F0 (human TAS2R7 [4]; L-menthol 2.60 mM): 0.92
activation of TAS2R7 (human TAS2R7 [4]): activated
EC50 (human TAS2R7 [4]; nonlinear regression of concentration-response, read-out: calculated EC50 value for TAS2R7): 310 µM
SMILES: CC(C)[C@@H]1CC[C@@H](C)C[C@H]1O [L-menthol]
activation of other human TAS2Rs [2]: not to be activated
calcium signalling upon addition (human TAS2R7 [1]; cells transiently expressing human TAS2R7): significant concentration-dependent increase
Neg. Control ΔF/F0 ([3]; L-menthol 0.01 mM): 0.09
Neg. Control ΔF/F0 ([3]; L-menthol 0.02 mM): 0.08
Neg. Control ΔF/F0 ([3]; L-menthol 0.04 mM): 0.08
Neg. Control ΔF/F0 ([3]; L-menthol 0.08 mM): 0.10
Neg. Control ΔF/F0 ([3]; L-menthol 0.16 mM): 0.15
Neg. Control ΔF/F0 ([3]; L-menthol 0.33 mM): 0.34
Neg. Control ΔF/F0 ([3]; L-menthol 0.65 mM): 0.41
Neg. Control ΔF/F0 ([3]; L-menthol 1.30 mM): 0.53
Neg. Control ΔF/F0 ([3]; L-menthol 2.60 mM): 0.65
change above the background signal in negative control [3]: did not show a significant change above the background signal

SMILES: CCN(CC)CCCC(C)Nc1ccnc2cc(Cl)ccc12 (centres unmarked) [chloroquine]
response of TAS2R7 (TAS2R7): known to respond
